Article PMC3942691, “The Dipeptide Monoester Prodrugs of Floxuridine and Gemcitabine—Feasibility of Orally Administrable Nucleoside Analogs” (Pharmaceuticals, 2014)
Where two headings read alike, the source gives them in different places. Marks after values point to notes of the source that are not given here.

Tests used:
Caco-2 cell homogenates [1] = test: Enzymatic stability in Caco-2 cell homogenates; assay type: in vitro ADME; settings: 500 µg/mL protein, 37 °C
Method: (§1) Confluent Caco-2, Panc-1, and AsPC-1cells were rinsed twice with phosphate buffered saline (PBS). The cells were lysed with phosphate buffer (pH 7.4) by ultrasonication (Micro ultrasonic cell disrupter Model KT40, Kontes, Vineland, NJ, USA), and pelleted by centrifugation for 5 min at 1,000 × g. Protein amount was quantified with the Bio-Rad (Hercules, CA, USA) DC Protein Assay using bovine serum albumin as a standard. The amount of protein was adjusted to 500 µg/mL and hydrolysis reactions were carried out in 96-well plates (Corning). […] The filtrate was then analyzed via reverse-phase HPLC.
(§2) The stability samples of prodrugs and their metabolites, and perfusion samples were determined on an Agilent HPLC system (Agilent Technologies, Santa Clara, CA, USA). […] Standard curves generated for each prodrug and their parent drug were utilized for quantitation of integrated area under peaks. […]
(§3) The experiments concerning drug and their prodrug stability were performed at 37 °C in 0.01 N HCl, SIF (pH 6.0), and pH 7.4 phosphate buffer. […] Prodrug metabolites such as floxuridine, 5-fluorouracil (5-FU), gemcitabine, 2′-deoxy-2′,2′-difluorouridine, uracil, and cytosine were monitored along with prodrug disappearance in this experiment.

Panc-1 cell homogenates = test: Enzymatic stability in Panc-1 cell homogenates; assay type: in vitro ADME; settings: 500 µg/mL protein, 37 °C
Method: Confluent Caco-2, Panc-1, and AsPC-1cells were rinsed twice with phosphate buffered saline (PBS). The cells were lysed with phosphate buffer (pH 7.4) by ultrasonication (Micro ultrasonic cell disrupter Model KT40, Kontes, Vineland, NJ, USA), and pelleted by centrifugation for 5 min at 1,000 × g. Protein amount was quantified with the Bio-Rad (Hercules, CA, USA) DC Protein Assay using bovine serum albumin as a standard. The amount of protein was adjusted to 500 µg/mL and hydrolysis reactions were carried out in 96-well plates (Corning). Caco-2, Panc-1, and AsPC-1 cell suspensions (250 µL) were placed in triplicate wells, the reactions were started with the addition of substrate, and cells were incubated at 37 °C for 120 min. At the desired time point, sample aliquots (35 µL) were removed and added to acetonitrile (ACN, 150 µL) with 0.1% TFA. The mixtures were filtered with a 0.45 µm filters at 1,000 × g for 10 min at 4 °C. The filtrate was then analyzed via reverse-phase HPLC.
The stability samples of prodrugs and their metabolites, and perfusion samples were determined on an Agilent HPLC system (Agilent Technologies, Santa Clara, CA, USA). The HPLC system consisted of Agilent pumps (1100 series), an Agilent autosampler (1200 series), and an Agilent UV-Vis detector (1100 series) controlled by Chemstation® 32 software (version B.01.03). Samples were resolved in an Agilent Eclipse Plus C18 reverse-phase column (3.5 µm, 4.6 × 75 mm) equipped with a guard column. The mobile phase consisted of 0.1% TFA/water (Solvent A) and 0.1% TFA/acetonitrile (Solvent B) with the solvent B gradient changing from 0%–56% at a rate of […] during a 15 min run for gemcitabine and gemcitabine prodrugs. Standard curves generated for each prodrug and their parent drug were utilized for quantitation of integrated area under peaks. The detection wavelength was 254 nm and spectra were acquired in the 220–380 nm wavelength range. The detection wavelength for phenol red was 430 nm.
as §3

Caco-2 cells = test: Uptake study in Caco-2 cells; assay type: cell-based; settings: 0.1 mM, 1 h
Method: Caco-2, Panc-1, and AsPC-1 cells were grown on a 6-well plate for 18, 6, and 6 days, respectively. Wells were rinsed with MES (pH 6.0) buffer twice. Fresh MES buffer was reapplied to each well and incubated at 37 °C for 15 min. Each drug was individually tested from freshly prepared solutions in MES buffer (0.1 mM, total 0.3 mL) with the presence and the absence of 10 mM glycyl-proline (Gly-Pro). The solution was placed in each well and incubated at 37 °C for 60 min. Drug solution was removed and 3 mL of ice-cold PBS was immediately placed in each well. Each well was rinsed with 3 mL of cold-PBS twice and 0.5 mL of methanol/H2O (1:1) containing 0.1% TFA was placed in each well. The cell suspension was collected and transferred to a new tube. Those tubes were spun at 1,000 × g at 4 °C for 5 min. The supernatant was mixed with equal amount of water with either 0.1% formic acid or 0.1% ammonium hydroxide for LC-MS analysis. The cell pullets were used to determine protein amount with the Bio-Rad DC Protein Assay using bovine serum albumin as a standard.
The LC-MS analytical method of 5′-mono amino acid ester prodrugs of floxuridine has been reported previously. The LC-MS analysis of dipeptide monoester prodrugs of floxuridine and gemcitabine along with their parent drugs was modified and performed in a similar manner. Briefly, LC-MS analysis of the uptake drug amount was performed in triplicate on LCMS-2010EV (Shimadzu Scientific Instruments, Kyoto, Japan) equipped with an ESI (electrospray ionization) source. The Shimadzu LC-MS system consisting of Shimadzu LC-20AD pumps with DGU-20A in-line vacuum degasser units, and SIL-20A HT autosampler with an InertSustain C-18, 2.1 × 50 mm, 3 µm particle size, (GL Sciences, Torrance, CA, USA) was used for the separation and the effluent from the column was introduced directly to the ionization source. The system was controlled by Shimadzu LCMS solution software (version 3) to collect and process data. All samples were run with Solvent A and Solvent B with Solvent B gradient changing from 0%–90% at a rate of 13.8%/min over a 22 min run. […]

[2] = tested on: Caco-2, Panc-1, and AsPC-1 cell homogenates; test: Enzymatic stability compared across Caco-2, Panc-1 and AsPC-1 cell homogenates; assay type: in vitro ADME
Method: as §1
The experiments concerning drug and their prodrug stability were performed at 37 °C in 0.01 N HCl, SIF (pH 6.0), and pH 7.4 phosphate buffer. […] Prodrug metabolites such as floxuridine, 5-fluorouracil (5-FU), gemcitabine, 2′-deoxy-2′,2′-difluorouridine, uracil, and cytosine were monitored along with prodrug disappearance in this experiment. However, the mass balance could not be established because 5-FU, cytosine and uracil were metabolized even further and those metabolites could not be quantified by HPLC [11, 50]. The specific kinetic parameters in drug/prodrug metabolism could not be determined without the mass balance and the data of enzymatic activities and their expression levels because those metabolic activities were simultaneously taken place. […]

Caco-2 cell homogenates [3] = settings: cited from earlier work
AsPC-1 cell homogenates = settings: cited from earlier work
[4] = Enzymatic stability in Caco-2 cell homogenates; assay type: in vitro ADME; settings: human, Caco-2, pH 7.4; 500 µg/mL protein, 37 °C; read-out: Caco-2 cell homogenates t1/2
Method: as §1, §2, §3

Molecule	Caco-2 cell homogenates t1/2 (Caco-2 cell homogenates [1]) [min]	Panc-1 cell homogenates t1/2 (Panc-1 cell homogenates) [min]	Parent drug, share of uptake (Caco-2 cells) [%]	degradation in AsPC-1 cells compared with Caco-2 and Panc-1 cells [2]	Prodrug, share of uptake (Caco-2 cells) [%]	Caco-2 cell homogenates t1/2 (Caco-2 cell homogenates [3])	AsPC-1 cell homogenates t1/2 (AsPC-1 cell homogenates)	half-life [4] [min]
2′,2′-difluoro-2′-deoxyuridine [Gemcitabine]	105.0 ± 6.1	>120	95	three- to four- times faster				
NC(Cc1ccccc1)C(=O)NC(Cc1ccc(O)cc1)C(=O)OCC1OC(n2cc(F)c(=O)[nH]c2=O)CC1O [5′-L-Phenylalanyl-L-tyrosyl-floxuridine]					45	103.8 ± 55.5 ^b min	59.7 ± 1.4 ^b min	
Nc1ccn(C2OC(COC(=O)C(Cc3ccc(O)cc3)NC(=O)C(N)Cc3ccccc3)C(O)C2(F)F)c(=O)n1 [5′-L-Phenylalanyl-L-tyrosyl-gemcitabine]					6			14.7 ± 4.4
O=c1[nH]c(=O)n([C@H]2C[C@H](O)[C@@H](CO)O2)cc1F [Floxuridine, 5-fluoro-2′-deoxyuridine]				two- to six-times faster		14.3 ± 7.0 ^a min	6.4 ± 3.2 ^a min	
